Reference: ChEMBL document CHEMBL5126592, “Design, synthesis and activity against drug-resistant bacteria evaluation of C-20, C-23 modified 5-O-mycaminosyltylonolide derivatives” (Eur J Med Chem, 2022)
Values after ≈ are worked out from the molar mass of the structure shown. Active and inactive are the calls of the source. The rule behind the calls is not given here.

Assays:
[1] = Genotoxicity in Salmonella typhimurium TA100 assessed as number of revertants at 2x10^-4 mg/plate incubated for 72 hrs in presence of liver S9 fraction by Ames test (reference value: 204.33 +/- 8.14); assay type: toxicity, subcellular; conditions: salmonella enterica subsp. enterica serovar typhimurium, s9, 72 h
Staphylococcus aureus [2] = assay: Antibacterial activity against Staphylococcus aureus incubated for 16 to 20 hrs by broth microdilution method; assay type: functional; conditions: time 16-20 hrs
[3] = Genotoxicity in Salmonella typhimurium TA102 assessed as number of revertants at 4x10^-5 mg/plate incubated for 72 hrs in presence of liver S9 fraction by Ames test (reference value: 465.33 +/- 18.04); assay type: toxicity, subcellular; conditions: salmonella enterica subsp. enterica serovar typhimurium, s9, 72 h
[4] = Genotoxicity in Salmonella typhimurium TA1537 assessed as number of revertants at 1.6x10^-6 mg/plate incubated for 72 hrs in presence of liver S9 fraction by Ames test (reference value: 20 +/- 5); assay type: toxicity, subcellular; conditions: salmonella enterica subsp. enterica serovar typhimurium, s9, 72 h
Escherichia coli [5] = assay: Induction of drug resistance in Escherichia coli ATCC 25922 assessed as increase in MIC measured after 30 passages by broth microdilution method; assay type: functional
[6] = Genotoxicity in Salmonella typhimurium TA100 assessed as number of revertants at 4x10^-5 mg/plate incubated for 72 hrs in presence of liver S9 fraction by Ames test (reference value: 204.33 +/- 8.14); assay type: toxicity, subcellular; conditions: salmonella enterica subsp. enterica serovar typhimurium, s9, 72 h
Escherichia coli [7] = assay: Antibacterial activity against Escherichia coli ATCC 25922 at pH 7 incubated for 16 to 20 hrs by broth microdilution method; assay type: functional; conditions: time 16-20 hrs
[8] = Genotoxicity in Salmonella typhimurium TA1537 assessed as number of revertants at 1x10^-3 mg/plate incubated for 72 hrs in presence of liver S9 fraction by Ames test (reference value: 20 +/- 5); assay type: toxicity, subcellular; conditions: salmonella enterica subsp. enterica serovar typhimurium, s9, 72 h
Staphylococcus aureus [9] = assay: Antibacterial activity against Staphylococcus aureus ATCC 29213 incubated for 16 to 20 hrs using 10^5 CFU/ml bacterial inoculum by broth microdilution method; assay type: functional; conditions: time 16-20 hrs
Staphylococcus aureus [10] = assay: Antibacterial activity against Staphylococcus aureus ATCC 29213 at pH 8.6 incubated for 16 to 20 hrs in absence of foetal bovine serum by broth microdilution method; assay type: functional; conditions: time 16-20 hrs
[11] = Genotoxicity in Salmonella typhimurium TA100 assessed as number of revertants at 1.6x10^-6 mg/plate incubated for 72 hrs in absence of liver S9 fraction by Ames test (reference value: 221.67 +/- 15.57); assay type: toxicity; conditions: salmonella enterica subsp. enterica serovar typhimurium, s9, 72 h
[12] = tested on: Streptococcus dysgalactiae; assay: Antibacterial activity against Streptococcus dysgalactiae incubated for 16 to 20 hrs by broth microdilution method; assay type: functional; conditions: time 16-20 hrs
[13] = Toxicity in Kunming mouse infected with Staphylococcus aureus ATCC 25923 assessed as hyperelastic lung tissue at 20 to 40 mg/kg, iv measured after 1 hr by hematoxylin and eosin staining based microscopic analysis; assay type: organism-based; conditions: in vivo, dose 20-40 mg/kg
[14] = Genotoxicity in Salmonella typhimurium TA102 assessed as number of revertants at 4x10^-5 mg/plate incubated for 72 hrs in absence of liver S9 fraction by Ames test (reference value: 386.67 +/- 23.44); assay type: toxicity; conditions: salmonella enterica subsp. enterica serovar typhimurium, s9, 72 h
Staphylococcus aureus [15] = assay: Antibacterial activity against Staphylococcus aureus ATCC 29213 at pH 8.6 incubated for 16 to 20 hrs in presence of 5% foetal bovine serum by broth microdilution method; assay type: functional; conditions: time 16-20 hrs
Escherichia coli [16] = assay: Bactericidal activity against Escherichia coli ATCC 25922 incubated for 20 to 24 hrs by CLSI based analysis; assay type: functional; conditions: time 20-24 hrs
Staphylococcus aureus [17] = assay: Antibacterial activity against Staphylococcus aureus ATCC 29213 at pH 8.2 incubated for 16 to 20 hrs by broth microdilution method; assay type: functional; conditions: time 16-20 hrs
[18] = Genotoxicity in Salmonella typhimurium TA1535 assessed as number of revertants at 8x10^-6 mg/plate incubated for 72 hrs in presence of liver S9 fraction by Ames test (reference value: 15.33 +/- 2.52); assay type: toxicity, subcellular; conditions: salmonella enterica subsp. enterica serovar typhimurium, s9, 72 h
Staphylococcus aureus [19] = assay: Antibacterial activity against Staphylococcus aureus ATCC 29213 at pH 8 incubated for 16 to 20 hrs by broth microdilution method; assay type: functional; conditions: time 16-20 hrs
[20] = Genotoxicity in Salmonella typhimurium TA102 assessed as number of revertants at 1.6x10^-6 mg/plate incubated for 72 hrs in absence of liver S9 fraction by Ames test (reference value: 386.67 +/- 23.44); assay type: toxicity; conditions: salmonella enterica subsp. enterica serovar typhimurium, s9, 72 h
[21] = Toxicity in Kunming mouse infected with Staphylococcus aureus ATCC 25923 assessed as normal alveolar size and morphology at 20 to 40 mg/kg, iv measured after 1 hr by hematoxylin and eosin staining based microscopic analysis; assay type: organism-based; conditions: in vivo, dose 20-40 mg/kg
Escherichia coli [22] = assay: Antibacterial activity against Escherichia coli ATCC 25922 incubated for 16 to 20 hrs in absence of foetal bovine serum by broth microdilution method; assay type: functional; conditions: time 16-20 hrs
[23] = Genotoxicity in Salmonella typhimurium TA100 assessed as number of revertants at 2x10^-4 mg/plate incubated for 72 hrs in absence of liver S9 fraction by Ames test (reference value: 221.67 +/- 15.57); assay type: toxicity; conditions: salmonella enterica subsp. enterica serovar typhimurium, s9, 72 h
[24] = Genotoxicity in Salmonella typhimurium TA1535 assessed as number of revertants at 4x10^-5 mg/plate incubated for 72 hrs in absence of liver S9 fraction by Ames test (reference value: 14.33 +/- 0.58); assay type: toxicity; conditions: salmonella enterica subsp. enterica serovar typhimurium, s9, 72 h
Cronobacter sakazakii = assay: Antibacterial activity against Cronobacter sakazakii ATCC 29544 incubated for 16 to 20 hrs by broth microdilution method; assay type: functional; conditions: time 16-20 hrs
Escherichia coli [25] = assay: Ratio of MBC to MIC for Escherichia coli ATCC 25922; assay type: functional
[26] = Genotoxicity in Salmonella typhimurium TA1535 assessed as number of revertants at 1.6x10^-6 mg/plate incubated for 72 hrs in presence of liver S9 fraction by Ames test (reference value: 15.33 +/- 2.52); assay type: toxicity, subcellular; conditions: salmonella enterica subsp. enterica serovar typhimurium, s9, 72 h
Staphylococcus aureus [27] = assay: Antibacterial activity against Staphylococcus aureus ATCC 25923 infected in kunming mouse assessed as reduction in viable pathogens at 20 mg/kg, iv measured after 1 hr; assay type: functional, organism-based
Staphylococcus aureus [28] = assay: Antibacterial activity against Staphylococcus aureus ATCC 29213 at pH 8.6 incubated for 16 to 20 hrs in presence of 10% foetal bovine serum by broth microdilution method; assay type: functional; conditions: time 16-20 hrs
Escherichia coli [29] = assay: Antibacterial activity against Escherichia coli ATCC 25922 incubated for 16 to 20 hrs in presence of 10% foetal bovine serum by broth microdilution method; assay type: functional; conditions: time 16-20 hrs
Escherichia coli [30] = assay: Antibacterial activity against Escherichia coli ATCC 25922 incubated for 16 to 20 hrs using 10^4 CFU/ml bacterial inoculum by broth microdilution method; assay type: functional; conditions: time 16-20 hrs
Staphylococcus aureus [31] = assay: Antibacterial activity against Staphylococcus aureus ATCC 29213 at pH 8.6 incubated for 16 to 20 hrs in presence of 25% foetal bovine serum by broth microdilution method; assay type: functional; conditions: time 16-20 hrs
Klebsiella pneumoniae = assay: Antibacterial activity against Klebsiella pneumoniae ATCC 13883 incubated for 16 to 20 hrs by broth microdilution method; assay type: functional; conditions: time 16-20 hrs
[32] = Genotoxicity in Salmonella typhimurium TA102 assessed as number of revertants at 2x10^-4 mg/plate incubated for 72 hrs in presence of liver S9 fraction by Ames test (reference value: 465.33 +/- 18.04); assay type: toxicity, subcellular; conditions: salmonella enterica subsp. enterica serovar typhimurium, s9, 72 h
Escherichia coli [33] = assay: Antibacterial activity against Escherichia coli ATCC 25922 incubated for 16 to 20 hrs using 10^5 CFU/ml bacterial inoculum by broth microdilution method; assay type: functional; conditions: time 16-20 hrs

CC[C@H]1OC(=O)C[C@@H](O)[C@H](C)[C@@H](O[C@@H]2O[C@H](C)[C@@H](O)[C@H](N(C)C)[C@H]2O)[C@@H](CCN(C)Cc2cn(-c3cnc4ccccc4c3)nn2)C[C@@H](C)C(=O)/C=C/C(C)=C/[C@@H]1CN1CCCCCC1
Activity [1]: 220.67
MIC (Staphylococcus aureus [2]): 0.25 mg/L (≈ 0.277 µM)
Activity [3]: 433.33
Activity [4]: 15
Activity (Escherichia coli [5]): Active
Activity [6]: 162
MIC (Escherichia coli [7]): 4 mg/L (≈ 4.43 µM)
Activity [8]: 15.67
MIC (Staphylococcus aureus [9]): 0.125 mg/L (≈ 0.139 µM)
MIC (Staphylococcus aureus [10]): 0.25 mg/L (≈ 0.277 µM)
Activity [11]: 157.67
MIC [12]: 0.25 mg/L (≈ 0.277 µM)
Activity [13]: Non-Toxic
Activity [14]: 429.33
MIC (Staphylococcus aureus [15]): 0.5 mg/L
MBC (Escherichia coli [16]): 2 mg/L (≈ 2.22 µM)
MIC (Staphylococcus aureus [17]): ≤ 0.0625 mg/L
Activity [18]: 13.67
MIC (Staphylococcus aureus [19]): ≤ 0.0625 mg/L
Activity [20]: 371.33
Activity [21]: Non-Toxic
MIC (Escherichia coli [22]): 1 mg/L (≈ 1.11 µM)
Activity [23]: 223.33
Activity [24]: 6.33
MIC (Cronobacter sakazakii): 4 mg/L (≈ 4.43 µM)
Ratio (Escherichia coli [25]): 2
Activity [26]: 16.33
Activity (Staphylococcus aureus [27]): Active
MIC (Staphylococcus aureus [28]): 0.5 mg/L
MIC (Escherichia coli [29]): 2 mg/L
MIC (Escherichia coli [30]): 0.25 mg/L (≈ 0.277 µM)
MIC (Staphylococcus aureus [31]): 1 mg/L
MIC (Klebsiella pneumoniae): 1 mg/L (≈ 1.11 µM)
Activity [32]: 456.67
MIC (Escherichia coli [33]): 0.5 mg/L (≈ 0.554 µM)
